Legend:
[1] = test system: PANC-1; test: CCK-8 cytotoxicity assay, PANC-1; format: cell-based
Method: (§1) Cell viability was evaluated using the Cell Counting Kit‐8 (Beyotime, Shanghai, China) assay. Cells were seeded in 96‐well plates at a density of 2×10^3 cells to allow for attachment. After treatment with ZQJ29 (0.001, 0.01, 0.1, 10, and 25 µM) for 24, 48, and 72 h, 10 µL of CCK‐8 solution was added to each well and incubated for 1 h. The optical density values were then measured at 450 nm using a multifunctional enzyme‐linked immunosorbent assay reader (Tecan, Spark, Switzerland).

[2] = test system: MCF; test: CCK-8 cytotoxicity assay, MCF; format: cell-based; settings: 72 h
Method: as §1

[3] = test system: HeLa; test: CCK-8 cytotoxicity assay, HeLa; format: cell-based; settings: Homo sapiens, 72 h
Method: as §1

[4] = test system: HCT116; test: CCK-8 cytotoxicity assay, HCT116; format: cell-based; settings: Homo sapiens, HCT-116; HCT116, 72 h
Method: as §1

[5] = test system: LX2; test: CCK-8 cytotoxicity assay, LX2 (normal cell line); format: cell-based; settings: Homo sapiens, LX-2, 72 h
Method: as §1

[6] = test system: PANC-1 cells; test: Cell cycle analysis (PI, flow cytometry), PANC-1; format: cell-based; settings: PANC-1, 24 h
Method: PANC‐1 and KP4 cells were placed in 6 cm dishes and exposed to designated concentrations of ZQJ29 (1 µM) for 24 h before trypsinization. After centrifugation, the cells were secured and preserved in ice‐cold 70% ethanol and stored at 4 °C for 24 h. They were then thoroughly washed with PBS multiple times. Next, the fixed cells were incubated in PBS supplemented with RNase and PI solution for 30 min at 37 °C, protected from light exposure. Cell cycle progression was assessed using a flow cytometer. This experimental procedure was systematically conducted in three separate trials, with each trial done in triplicate. Cell cycle kits were obtained from Beyotime (Shanghai, China).

[7] = test system: PANC-1 and KP4 cells; test: Colony formation assay; format: cell-based; settings: 0, 1, 2.5, 5 µM, concentration-dependent
Method: The clonogenicity of pancreatic cancer cells was evaluated using a colony formation assay. PANC‐1 and KP4 cells were seeded into 6‐well plates at ≈200 cells per well in the conditional medium. The cells were treated with different concentrations of ZQJ29 (0, 1, 2.5, and 5 µM) for 24 h. After treatment, the drug‐containing medium was removed, and complete medium was added for an additional […] in a 37 °C incubator with 5% CO2. The plates were then washed with PBS and fixed with 4% paraformaldehyde. After staining with 0.5% crystal violet (Yeasen, Shanghai, China), the colonies were counted manually.

[8] = test system: PANC-1 and KP4 cells; test: Wound healing (cell migration) assay; format: cell-based; settings: 0, 1, 2.5, 5 µM; 12 and 24 h
Method: PANC‐1 and KP4 cells were cultured in 6‐well plates until complete confluence was reached. A “scratch” or “wound” was made with a sterile 10 µL pipette tip. Following this, the cells were treated with varying concentrations of ZQJ29 (0, 1, 2.5, and 5 µM). After 12 and 24 h, migration activity were observed and captured using an inverted EVOS microscope (Thermo Fisher Scientific, USA). The number of migrated cells were then quantified.

[9] = test system: PANC-1 and KP4 cells; test: Ferroptosis markers (lipid ROS, iron, MDA, GSH); format: cell-based; settings: 0, 1, 2.5, 5 µM, 24 h of ZQJ29 treatment
[10] = test system: PARP1; test: PARP1 expression (western blot, immunofluorescence); format: cell-based
Method: (§2) For western blotting analysis, ZQJ29‐treated cells were lysed with RIPA Lysis Buffer (Yeasen, Shanghai, China) containing protease and phosphatase inhibitors (Yeasen, Shanghai, China) on ice. The cell lysates were quantified using the BCA Protein Assay Kit (Beyotime, Shanghai, China). Samples were subjected to SDS‐PAGE and transferred to PVDF membranes (Beyotime, Shanghai, China). The membranes were blocked with 5% nonfat milk in TBST (Buffered Saline with 0.1% Tween 20) for 1 h, followed by overnight incubation at 4 °C with primary antibodies. After washing the membranes three times with TBST, they were incubated with the appropriate secondary antibodies for 2 h at room temperature. Following another three times with TBST, the bands on the membranes were detected using the ECL‐Plus Western Blotting Detection System (Yeasen, Shanghai, China).
PARP1 expression in the cell nucleus was detected using immunofluorescence. The cells were seeded in a 12‐well plate and treated with ZQJ29 (0, 1, 2.5, and 5 µM) after complete adhesion. After a specific duration of treatment, fixation, blocking, and antibody incubation were performed, and images were captured using a Cytation 5‐cell imaging microplate detection system.

[11] = test system: PARP1, TP53, SLC7A11, and GPX4; test: Western blot of PARP1, TP53, SLC7A11 and GPX4 in cells; format: cell-based; settings: PANC-1 and KP4 cell lines, dose-dependent
Method: as §2

[12] = molecular target: T1, PARP1 (Homo sapiens, UniProt P09874); test: SPR analysis (Biacore S200); format: binding; set-up: purchased Sino Biological 11040‐H08B; settings: 25 °C, Steady State Affinity model
Method: The interaction between ZQJ29 and PARP1 was assessed by SPR with the Biacore S200 system at 25 °C (Cytiva). Recombinant human PARP1 protein (Sino Biological, 11040‐H08B) was immobilized on an activated carboxymethylated 5 (CM5) sensor chip using the amine coupling method. Gradient concentrations of 3 were injected at a flow rate of 40 µL min^−1 in a running buffer [5% (v/v) DMSO in PBS·P]. The results were analyzed with the Biacore evaluation software (S200 version). Data were fitted to the Steady State Affinity model, and kinetic parameters were derived.

[13] = molecular target: T1, PARP1; test: CETSA; format: binding; set-up: Total cellular proteins from PANC‐1 and KP4 were extracted using M‐PER lysis buffer; endogenous in cells; host or cells: PANC-1 and KP4 pancreatic cancer cells
Method: PANC‐1 and KP4 cells were treated with M‐PER lysis buffer to lyse the cells. The resulting protein extracts were divided into two parts. One part was treated with 50 µM ZQJ29, while the other received an equal amount of DMSO. Both mixtures were incubated on ice for 1 h. The samples were then divided into 100 µL PCR tubes and exposed to a range of temperatures starting at 45 °C. After cooling and centrifugation, 5 × SDS loading buffers were added to the supernatant. The samples were then heated to 95 °C for 10 min and analyzed SDS‐PAGE followed by Western blotting.

T1 sequence (P09874 whole entry): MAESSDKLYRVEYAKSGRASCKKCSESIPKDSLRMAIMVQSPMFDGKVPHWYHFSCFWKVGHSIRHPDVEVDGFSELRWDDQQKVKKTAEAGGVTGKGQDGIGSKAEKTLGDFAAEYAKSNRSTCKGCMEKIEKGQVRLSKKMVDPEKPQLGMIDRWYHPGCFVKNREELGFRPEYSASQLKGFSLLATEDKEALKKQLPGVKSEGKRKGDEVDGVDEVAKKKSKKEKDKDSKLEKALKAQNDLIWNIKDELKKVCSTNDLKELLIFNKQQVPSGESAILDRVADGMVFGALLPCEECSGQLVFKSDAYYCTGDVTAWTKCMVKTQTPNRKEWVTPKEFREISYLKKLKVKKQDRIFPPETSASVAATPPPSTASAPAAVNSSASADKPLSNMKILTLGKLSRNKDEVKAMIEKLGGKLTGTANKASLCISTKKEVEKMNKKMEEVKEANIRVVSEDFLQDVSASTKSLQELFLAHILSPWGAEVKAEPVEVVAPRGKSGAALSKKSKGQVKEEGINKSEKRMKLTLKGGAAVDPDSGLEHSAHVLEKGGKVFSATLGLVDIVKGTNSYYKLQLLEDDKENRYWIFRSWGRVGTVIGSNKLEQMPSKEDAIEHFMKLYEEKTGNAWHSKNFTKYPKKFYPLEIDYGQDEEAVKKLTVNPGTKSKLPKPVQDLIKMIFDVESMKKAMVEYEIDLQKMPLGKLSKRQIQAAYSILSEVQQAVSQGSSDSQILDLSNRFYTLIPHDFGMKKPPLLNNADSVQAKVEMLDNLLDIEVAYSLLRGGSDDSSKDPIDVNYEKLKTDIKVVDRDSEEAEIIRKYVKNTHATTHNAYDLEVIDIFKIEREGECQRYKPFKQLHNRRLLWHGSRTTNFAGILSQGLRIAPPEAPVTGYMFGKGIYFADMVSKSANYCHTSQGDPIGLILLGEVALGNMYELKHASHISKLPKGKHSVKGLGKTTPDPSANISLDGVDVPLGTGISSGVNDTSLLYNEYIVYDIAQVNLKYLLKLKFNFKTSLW

In the case of `CC1CCC2C(C)C(OCCN(C#N)CCOC3OC4OC5(C)CCC6C(C)CCC(C3C)C46OO5)OC3OC4(C)CCC1C32OO4` (centres unmarked) [ZQJ29], the IC50 ([1]; Homo sapiens, PANC-1, 72 h, average of 3 parallel tests) is reported as 120 ± 30 nM, the “increased cytotoxicity compared to OXA and DHA” value ([1]; PANC-1 cells) is reported as “≈ 100 fold” and the IC50 [2] is reported as 759 ± 311 nM. The IC50 [3] was 1280 ± 289 nM, the IC50 [4] was 1020 ± 500 nM and the IC50 [5] was > 10000 nM. The cell cycle arrest [6] was “remarkable G2/M phase arrest”, the colony formation [7] was “significantly inhibited” and the migration abilities [8] was “impaired”. For the same compound, the “intracellular ROS, iron, MDA and GSH levels” value [9] was “increased ROS release, iron accumulation, MDA production, and GSH depletion”, the “nucleoplasmic PARP1 levels (immunofluorescence)” value ([10]; PANC-1 and KP4 cells, 0, 1, 2.5, 5 µM, 24 h) was “remarkably reduced” and the “PARP1 expression (western blot)” value ([10]; PANC-1 and KP4 cells, time- and concentration-dependent) was “significantly reduced”. For the same compound, the “expression of PARP1, SLC7A11 and GPX4” value [11] was “downregulated”, the “expression of TP53” value [11] was “upregulated” and the Kd [12] was 2860 nM. For the same compound, the “PARP1 accumulation (thermal stability)” value ([13]; PANC-1 and KP4 lysates, 50 µM ZQJ29, 45 to 70 °C) was “significantly increased” and the “PARP1 stability at 60 °C” value ([13]; cell lysates, increasing ZQJ29 concentrations) was “enhanced”.

From PMC12362764, “Novel Cyano‐Artemisinin Dimer ZQJ29 Targets PARP1 to Induce Ferroptosis in Pancreatic Cancer Treatment” (Advanced Science, 2025)
